Measured values: patent publication US20050064044A1, “GSK-3beta inhibitors in the treatment of bone-related diseases” (priority 2003, published 2005)
“Also recorded” adds a separate entry of the source.

Assays:
C3H10T1/2 cells = test: Alkaline phosphatase (ALP) osteoblast differentiation marker in C3H10T1/2 cells; format: cell-based; details: C3H10T1/2 cells stimulated for 48 h; ALP activity normalized for total protein; FIG. 2
Text: In vitro model used the pluripotent mesenchymal cell line C3H10T1/2 that is able to differentiate into osteoblasts when triggered with the right compound or protein. The ability of a compound to induce these C3H10T1/2 cells to differentiate into osteoblasts can be monitored by, for instance, measuring the expression of the osteoblast differentiation marker, alkaline phosphatase (ALP).
Whether inhibition of GSK-3β by LiCl in C3H10T1/2 cells leads to the expression of ALP was investigated.
C3H10T1/2 cells were stimulated with LiCl or with NaCl for 48 h. ALP activity was determined in cell lysates using Alkaline Phosphatase Opt kit (Roche Molecular Biochemicals). Cell lysates were analyzed for protein content using micro-BCA Assay kit (Pierce), and ALP activity was normalized for total protein concentration.

[1] = system: Wnt/β-catenin signalling (GSK-3β inhibition) in C3H10T1/2 cells; test: Wnt signalling luciferase reporter construct in C3H10T1/2 cells; format: cell-based; details: C3H10T1/2 cells stimulated for 24 h; firefly normalized to Renilla luciferase; FIG. 1
Description: Whether inhibition of GSK-3β in C3H10T1/2 cells leads to Wnt/β-catenin signalling activation was investigated.
C3H10T1/2 cells were transiently transfected using Fugen6 (Boehringer) with a Wnt signalling luciferase reporter construct (van de Wetering et al., 1997). To assess transfection efficacy, 20 ng of pRL-TK (Promega) encoding a Renilla luciferase gene downstream of a minimal HSV-TK promoter was systematically added to the transfection mix. Cells were stimulated with LiCl or with NaCl for 24 h. Cells were lysated and luciferase assays were performed with the Dual Luciferase Assay Kit (Promega) according to the manufacturer's instructions. 10 μl of cell lysate was assayed first for firefly luciferase and then for Renilla luciferase activity. Firefly luciferase activity was normalized to Renilla luciferase activity.

LRP5 knockout mice = test: Bone phenotype of LRP5 knockout mice, micro-CT tomodensitometric analysis of tibia; format: in vivo
Description: In vivo model uses LRP5 knock-out animals that show osteopenia phenotype resulting from the absence of the Wnt canonical signalling pathway, said signalling pathway involving GSK-3β. Thanks to this model, the effect of GSK-3β inhibitors on bone mass can be observed.
LRP5 knockout mouse model has been described as an osteopenic mouse model (Kato et al., 2002).
LiCl solution was prepared in distillated water at 55 mg/ml. Compound was administered by micropump Alzet (ref: 1002, Charles Rivers, France) to 2-3 week-old LRP5 knockout (KO) mice for 2 weeks. Tibia were prepared for tomographic analysis (Tomodensitometer Scanco μCT20, Basserdorf, Switszerland). Micro-CT scans of the metaphyseal tibia were performed at an isotropic resolution of 9 μm, to obtain trabecular bone structural parameters. Using a two- and three-dimensional model and a semiautomatic contouring algorithm, three-dimensional bone volume, bone surface, and trabecular thickness were determined (FIG. 6).
Statistical significance was determined by the ANOVA unpaired t'test.
Results of tomodensitometric analysis of metaphyseal trabecular part of tibia from 5 week-old and 4 week-old LRP5-KO mice treated with vehicle or LiCl (200 mg/kg/d) during 15 days are given in FIGS. 4 and 5, respectively.

[2] = 4 week-old LRP5-KO mice treated for 15 days, vs vehicle, FIG. 6B/6D
[3] = 4 week-old LRP5-KO mice, 200 mg/kg/d during 15 days, metaphyseal trabecular tibia, vs vehicle, FIG. 5
[4] = 5 week-old LRP5-KO mice, 200 mg/kg/d during 15 days, metaphyseal trabecular tibia, vs vehicle, FIG. 4

[Cl-].[Li+] [LiCl, lithium]
expression of the ALP osteoblast differentiation marker (C3H10T1/2 cells): able to stimulate the expression of the ALP osteoblast differentiation marker | luciferase expression (Wnt-signalling luciferase reporter) [1]: able to activate luciferase expression | bone volume, 3-D reconstruction of trabecular part of tibia (LRP5 knockout mice; [2]): increase | trabecular thickness, 3-D reconstruction of trabecular part of tibia (LRP5 knockout mice; [2]): increase | BV/TV (bone volume) (LRP5 knockout mice; [3]): significantly increase | Tb.N (trabecular number) (LRP5 knockout mice; [3]): significantly increase | Tb.Th (trabecular thickness) (LRP5 knockout mice; [3]): significantly increase | BV/TV (bone volume) (LRP5 knockout mice; [4]): significantly increase | Tb.N (trabecular number) (LRP5 knockout mice; [4]): significantly increase | bone phenotype (osteopenia) of LRP5 knockout mice (LRP5 knockout mice; LRP5-KO mice, FIGS. 4 and 5): partially reversed; also recorded: partly restored
